From US6943158B2, “Diazinopyrimidines” (Roche Palo Alto LLC, priority 2002, dated 2005)

Key:
p38 MAP kinase = molecular target: T1, p38 MAP kinase (Homo sapiens, UniProt Q16539); test: in vitro p38 MAP kinase inhibition assay (transfer of γ-33P from ATP to Myelin Basic Protein); assay type: biochemical; details: phosphorylated recombinant p38 MAP kinase, MBP substrate, γ-33P-ATP; read-out: p-38 inhibitory activity, IC50
T1 construct: made in house; host or cells: E. coli (co-expressed with SEK-1 and MEKK to phosphorylate it)
T1 sequence (Q16539 whole entry): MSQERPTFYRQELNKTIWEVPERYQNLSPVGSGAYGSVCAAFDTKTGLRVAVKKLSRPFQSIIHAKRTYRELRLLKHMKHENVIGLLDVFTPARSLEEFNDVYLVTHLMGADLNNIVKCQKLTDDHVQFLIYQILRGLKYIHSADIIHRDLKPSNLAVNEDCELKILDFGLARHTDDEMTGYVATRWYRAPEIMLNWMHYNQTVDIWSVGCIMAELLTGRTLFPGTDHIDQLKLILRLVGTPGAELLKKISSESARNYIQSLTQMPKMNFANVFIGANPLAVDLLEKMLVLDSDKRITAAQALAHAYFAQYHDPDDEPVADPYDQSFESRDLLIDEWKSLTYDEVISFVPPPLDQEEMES
Description: This example illustrates an in vitro assay procedure for determining p38 MAP kinase inhibition by a compound of Formula I.
The p-38 MAP kinase inhibitory activity of compounds of this invention in vitro is determined by measuring the transfer of the γ-phosphate from γ-^33P-ATP by p-38 kinase to Myelin Basic Protein (MBP), using the a minor modification of the method described in Ahn, N. G.; et al. J. Biol. Chem. Vol. 266(7), 4220-4227, (1991).
The phosphorylated form of the recombinant p38 MAP kinase was expressed with SEK-1 and MEKK in E. Coli and then purified by affinity chromatography using a Nickel column.
The phosphorylated p38 MAP kinase is diluted in kinase buffer (20 mM 3-(N-morpholino)propanesulfonic acid, pH 7.2, 25 mM β-glycerol phosphate, 5 mM ethylene glycol-bis(beta-aminoethyl ether)-N,N,N′,N′-tetraacetic acid, 1 mM sodium vanadate, 1 mM dithiothreitol, 40 mM magnesium chloride). Test compound dissolved in DMSO or only DMSO (control) is added and the samples are incubated for 10 min at 30° C. The kinase reaction is initiated by the addition of a substrate cocktail containing MBP and γ-^33P-ATP. […] The phosphorylated MBP is then separated from the residual γ-^33P-ATP using a phosphocellulose membrane (Millipore, Bedford, Mass.) and quantitated using a scintillation counter (Packard, Meriden, Conn.). […]

FGFR = molecular target: T2, FGFR; test: in vitro FGFR kinase inhibition HTRF assay; assay type: biochemical; details: recombinant GST-tagged FGFR, 10 μM ATP, 37° C. 30 minutes
T2 construct: fused on or other part: GST tag
Description: To determine inhibition of FGFR activity, kinase assays were conducted using an HTRF (Homogeneous Time Resolved Fluorescence) assay. This assay is described in A. J. Kolb et. al., Drug Discovery Today, 1998, 3(7), p 333.
Prior to kinase reaction, recombinant GST-tagged FGFR enzyme was activated at room temperature for 1 hour in the following activation buffer: 100 mM HEPES, pH 7.4, 50 mM NaCl, 20 mM MgCl2, and 4 mM ATP.
Kinase activity assays were performed in 96-well polypropylene plates (Falcon) with a total volume of 90 μL in each well. Each well contained 1 μM substrate (Biotin-EEEEYFELV), 1.5 μM activated FGFR, and a test compound with one of 8 assay concentrations ranging from 100 μM to […] (1:5 serial dilution). The kinase activity assay was done in the presence of 100 mM HEPES, pH 7.4, 1 mM DTT, 0.1 mM Na2VO4, 0.4 mM MgCl2, 0.4 mM MnCl2, 50 mM NaCl (from KDR stock solution), 1% DMSO (from compound), 10 μM ATP (Km=8.5 μM for FGFR) and 0.02% BSA. The reaction was incubated at 37° C. for 30 minutes. To stop the FGFR reaction, 72 μL of reaction mixture was transferred into a STOP plate containing 18 μL of revelation buffer (20 mM EDTA, 50 mM HEPES, pH 7.4, 0.02% BSA, 10 nM Eu-labelled anti-p Y antibody (final conc. 2 nM), and 100 nM streptavidin (final conc. 20 nM)). After mixing, 35 μL of solution was transferred into duplicate wells of a 384-well black plate (Costar), and read at 615/665 nm on a Wallac Victor 5 reader.
Compound IC50 values were determined from duplicate sets of data, and calculated by using Excel and fitting data to equation Y=[(a−b)/{1+(X/c)^d]+b, where a and b are enzyme activity in the presence of no test inhibitor compound and an infinite amount of inhibitor test compound, respectively, c is the IC50 and d is the hill constant of the compound response. The IC50 value is the concentration of test compound that reduces by 50% the enzyme activity under the test conditions described. Compounds of the invention were active in the assay. Selected IC50 values are shown below.

Row | IC50 (p38 MAP kinase) [µM] | melting point [°C] | IC50 (FGFR) [µM] | SMILES
1 | 0.189 | 171 to 172.1 |  | CN1N=C(c2ccccc2Cl)Oc2cnc(NC3CCOCC3)nc21 [compound 1, 2-methyl-4-(2-chlorophenyl)-6-(tetrahydropyranyl-4-amino)-4H-1,3,4-pyrimido[4,5-e]oxadiazine]
2 | 2.2 |  |  | CN1N=C(c2ccccc2F)Oc2cnc(NC3CCOCC3)nc21 [compound 2]
3 |  |  | 0.18 | CN1N=C(c2c(Cl)cccc2Cl)Oc2cnc(Nc3ccccc3)nc21 [compound 5, [3-(2,6-dichlorophenyl)-1-methyl-1H-pyrimido[4,5-e][1,3,4]oxadiazin-7-yl]-phenyl-amine]
4 |  |  | 0.24 | CN1N=C(c2c(Cl)cccc2Cl)Oc2cnc(Nc3ccc(F)cc3)nc21 [compound 6, [3-(2,6-Dichloro-phenyl)-1-methyl-1H-pyrimido[4,5-e][1,3,4]oxadiazin-7-yl]-(4-fluoro-phenyl)-amine]
5 |  |  | 0.32 | CN1N=C(c2c(Cl)cccc2Cl)Oc2cnc(Nc3cccc(Cl)c3)nc21 [compound 7, [3-(2,6-Dichloro-phenyl)-1-methyl-1H-pyrimido[4,5-e][1,3,4]oxadiazin-7-yl]-(3-chloro-phenyl)-amine]
6 |  | 192.2 to 200.3 |  | CN1N=C(c2c(Cl)cccc2Cl)Oc2cnc(Nc3ccc(N4CCOCC4)cc3)nc21 [compound 29, [3-(2,6-dichlorophenyl)-1-methyl-1H-pyrimido[4,5-e][1,3,4]oxadiazin-7-yl]-(4-morpholin-4-yl-phenyl)amine]
